The source of these data is PMC6271036, “Antimalarial Evaluation of the Chemical Constituents of Hairy Root Culture of Bixa orellana L” (Molecules, 2014).

The subject of assay [1] is malaria strains 3D7 and K1. As to the kind of experiment: in vitro anti-plasmodium activity, strain not told apart. The class given is cell-based, Plasmodium falciparum. On the procedure:
(§1) The crude extract from culture medium and roots (compound 17), a combination of MeJA derivatives (compound 16), and its individual isolated components were tested in vitro for anti-plasmodium activity against malaria strains 3D7 and K1, as described in previously developed assays. Pure compounds were prepared as 10 mM or 2 mM stock solutions in DMSO.
Parasites were grown in Petri dishes in the presence of fresh group O-positive erythrocytes (hematocrit 4%–6%) in RPMI 1640 (pH 7.3) supplemented with 0.5% AlbuMAX II, 25 mM HEPES, 25 mM NaHCO3, 100 μg/mL hypoxanthine, and 5 μg/mL gentamycin. Cultures were incubated at 37 °C with 5% O2 and 5% CO2. Compounds were prepared as 10 mM stock solutions in DMSO (except compound 18) to measure EC50. The stock solutions were plated in 384-well plates, serially diluted (1:3) in DMSO. Compounds were then transferred to a 384-well assay plate containing 20 μL of RPMI 1640 with 5 μg/mL gentamycin by using a 384-head pin tool. Twenty μL of a synchronized culture suspension (1% rings, 4% hematocrit) was added to each well (final hematocrit and parasitemia, of 2% and 1%, respectively). The final DMSO concentration was 0.65%. Assay plates were incubated for 72 h and parasitemia was measured by using a previously described DNA stain-based assay. The MAR3D7 growth inhibition assay was used for the chloroquine-sensitive 3D7 strain of P. falciparum, and quantified growth by using DNA dyes. The experiment required a total of 96 h, including a 72 h incubation with test compounds. Positive controls were chloroquine and mefloquine. The MARK1 growth inhibition assay was used for the K1 strain of P. falciparum, known to be resistant to both chloroquine and pyrimethamine due to expression of the chloroquine resistance transporter and upregulation of the multi-drug resistance efflux pump. Growth was quantitated by using DNA dyes. The experiment required a total of 96 h, including a 72 h incubation with test compounds. Positive controls were chloroquine and mefloquine.

Assay [2] deals with W2 strain of P. falciparum. On the set-up: method as in earlier work. The note with it: 15 mg/Kg, mice; cited from earlier work.
Assay [3] concerns chloroquine-sensitive 3D7 strain of P. falciparum. Description: MAR3D7 growth inhibition assay (DNA dye). The class given is cell-based, Plasmodium falciparum. The note with it: 72 h incubation. On the procedure: as §1
(§2) Parasites were grown in Petri dishes in the presence of fresh group O-positive erythrocytes (hematocrit 4%–6%) in RPMI 1640 (pH 7.3) supplemented with 0.5% AlbuMAX II, 25 mM HEPES, 25 mM NaHCO3, 100 μg/mL hypoxanthine, and 5 μg/mL gentamycin. Cultures were incubated at 37 °C with 5% O2 and 5% CO2. Compounds were prepared as 10 mM stock solutions in DMSO (except compound 18) to measure EC50. The stock solutions were plated in 384-well plates, serially diluted (1:3) in DMSO. Compounds were then transferred to a 384-well assay plate containing 20 μL of RPMI 1640 with 5 μg/mL gentamycin by using a 384-head pin tool. […] Assay plates were incubated for 72 h and parasitemia was measured by using a previously described DNA stain-based assay. The MAR3D7 growth inhibition assay was used for the chloroquine-sensitive 3D7 strain of P. falciparum, and quantified growth by using DNA dyes. […] Growth was quantitated by using DNA dyes. […]

Assay [4] concerns K1 strain of P. falciparum. Description: MARK1 growth inhibition assay (DNA dye). The class given is cell-based, Plasmodium falciparum. The note with it: 72 h incubation. How it is done:
as §1, §2

pEC50: −log10 of the molar value. Entries after “also recorded” stand apart in the source; their conditions may differ.

As to `C[C@H]1CCC[C@@]23CC4C(C[C@]12C)C4(C)C3` [Compound 1, (2aS,6S,6aR)-1,6,6a-trimethyldecahydro-1,2a-methanocyclopropa[b]naphthalene], the “antimalarial activity (in words)” value in assay [1] is recorded as “promising antimalarial activity”. For the molecule `CC(C)=CCC/C(C)=C/CC/C(C)=C/CC[C@]1(C)CCc2cc(O)cc(C)c2O1` [Compound 3, δ-tocotrienol], the “antimalarial activity (in words)” value in assay [1] is “promising antimalarial activity”. With `CC[C@H](CC[C@@H](C)[C@H]1CC[C@H]2[C@@H]3CC=C4C[C@@H](O)CC[C@]4(C)[C@H]3CC[C@]12C)C(C)C` [Compound 6, β-sitosterol], the “in vivo antimalarial activity” value in assay [2] is given as “active”. Consider `C[C@@H]1CC[C@]2(C(=O)O)CC[C@]3(C)C(=CC[C@@H]4[C@@]5(C)C[C@@H](O)[C@H](O)C(C)(C)[C@@H]5CC[C@]43C)[C@@H]2[C@]1(C)O` [tormentic acid, reference compound], for which the “in vivo antimalarial activity” value in assay [2] is reported as “active”. On to “(3S,9S,10S,13R,17R)-17-((2R,5S,E)-5-ethyl-6-methylhept-3-en-2-yl)-9,10,13-trimethyl-2,3,4,7,8,9,10,11,12,13,14,15,16,17-tetradecahydro-1H-cyclopenta[a]phenanthren-3-ol [Compound 5]”, for which the pEC50 in assay [3] is 5.52; in assay [4], 5.30. The “antimalarial activity (in words)” value in assay [1] is “promising antimalarial activity; also recorded: most potent compound lead”.
